# Experiments:
# [1] = molecular target: T1, Mcl-1/Bim interaction, recombinant human Mcl-1 (171-327) (Homo sapiens, UniProt Q07820); experiment: Cell free Mcl-1: Bim Affinity Assay (Mcl-1 HTRF); format: binding; conditions: TR-FRET, 0.1 nM Mcl-1 (171-327), 0.05 nM biotin-Bim (51-76)
# T1 construct: made in house
# In short: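 Compounds were mixed with the protein and a biotinylated Bim peptide spanning human residues 51-76. Plates were left overnight, then TR-FRET signal was measured. A four-parameter sigmoidal model applied to duplicate competition data gave IC50.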
# [2] = test system: OPM-2 human multiple myeloma cell line; experiment: Cell Viability Assay (OPM-2 10 FBS); format: cell-based; conditions: Homo sapiens, OPM-2, 16 h, OPM-2 cells, 16 h, CellTiter-Glo
# In short: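 ATP-based luminescence (CellTiter-Glo) measured after a 16 h compound treatment of OPM-2 cells seeded at 3000 cells/well in 10% FBS medium. IC50 values derived by 4-parameter logistic fitting of serial dilutions.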
# T1 sequence (Q07820 171-327): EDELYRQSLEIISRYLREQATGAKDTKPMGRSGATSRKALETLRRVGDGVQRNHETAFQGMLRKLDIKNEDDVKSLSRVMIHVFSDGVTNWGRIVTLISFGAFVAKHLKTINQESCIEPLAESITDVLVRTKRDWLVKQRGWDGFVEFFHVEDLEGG
Compound,IC50 [1],IC50 [2]
"CC(C)NC(=O)CO[C@H]1/C=C/C[C@H](C)[C@@H](C)S(=O)(=O)NC(=O)c2ccc3c(c2)N(C[C@@H]2CC[C@H]21)C[C@@]1(CCCc2cc(Cl)ccc21)CO3 [Example 296, 2-(((1S,3′R,6′R,7′S,8′E,11′S,12′R)-6-chloro-11′,12′-dimethyl-13′,13′-dioxido-15′-oxo-3,4-dihydro-2H-spiro[naphthalene-1,22′-[20]oxa[13]thia[1,14]diazatetracyclo[14.7.2.0^3,6.0^19,24]pentacosa [8,16,18,24]tetraen]-7′-yl)oxy)-N-(1-methylethyl)acetamide]",0.496 nM,524 nM
"COCCN(C)C(=O)CO[C@H]1/C=C/C[C@H](C)[C@@H](C)S(=O)(=O)NC(=O)c2ccc3c(c2)N(C[C@@H]2CC[C@H]21)C[C@@]1(CCCc2cc(Cl)ccc21)CO3 [Example 299, 2-(((1S,3′R,6′R,7′S,8′E,11′S,12′R)-6-chloro-11′,12′-dimethyl-13′,13′-dioxido-15′-oxo-3,4-dihydro-2H-spiro[naphthalene-1,22′-[20]oxa[13]thia[1,14]diazatetracyclo[14.7.2.0^3,6.0^19,24]pentacosa [8,16,18,24]tetraen]-7′-yl)oxy)-N-(2-methoxyethyl)-N-methylacetamide]",0.275 nM,280 nM
"C[C@@H]1[C@@H](C)C/C=C/[C@H](OCC(=O)N(C)CCN(C)C)[C@@H]2CC[C@H]2CN2C[C@@]3(CCCc4cc(Cl)ccc43)COc3ccc(cc32)C(=O)NS1(=O)=O [Example 300, 2-(((1S,3′R,6′R,7′S,8′E,11′S,12′R)-6-chloro-11′,12′-dimethyl-13′,13′-dioxido-15′-oxo-3,4-dihydro-2H-spiro[naphthalene-1,22′-[20]oxa[13]thia[1,14]diazatetracyclo[14.7.2.0^3,6.0^19,24]pentacosa [8,16,18,24]tetraen]-7′-yl)oxy)-N-(2-(dimethylamino)ethyl)-N-methylacetamide]",0.24 nM,817 nM
"CONC(=O)CO[C@H]1/C=C/C[C@H](C)[C@@H](C)S(=O)(=O)NC(=O)c2ccc3c(c2)N(C[C@@H]2CC[C@H]21)C[C@@]1(CCCc2cc(Cl)ccc21)CO3 [Example 301, 2-(((1S,3′R,6′R,7′S,8′E,11′S,12′R)-6-chloro-11′,12′-dimethyl-13′,13′-dioxido-15′-oxo-3,4-dihydro-2H-spiro[naphthalene-1,22′-[20]oxa[13]thia[1,14]diazatetracyclo[14.7.2.0^3,6.0^19,24]pentacosa [8,16,18,24]tetraen]-7′-yl)oxy)-N-methoxyacetamide]",0.245 nM,844 nM
"C[C@@H]1[C@@H](C)C/C=C/[C@H](OCC(=O)NC2COC2)[C@@H]2CC[C@H]2CN2C[C@@]3(CCCc4cc(Cl)ccc43)COc3ccc(cc32)C(=O)NS1(=O)=O [Example 303, 2-(((1S,3′R,6′R,7′S,8′E,11′S,12′R)-6-chloro-11′,12′-dimethyl-13′,13′-dioxido-15′-oxo-3,4-dihydro-2H-spiro[naphthalene-1,22′-[20]oxa[13]thia[1,14]diazatetracyclo[14.7.2.0^3,6.0^19,24]pentacosa [8,16,18,24]tetraen]-7′-yl)oxy)-N-3-oxetanylacetamide]",0.2 nM,567 nM
"C[C@@H]1[C@@H](C)C/C=C/[C@H](OCC(=O)N2CC(O)C2)[C@@H]2CC[C@H]2CN2C[C@@]3(CCCc4cc(Cl)ccc43)COc3ccc(cc32)C(=O)NS1(=O)=O [Example 304, (1S,3′R,6′R,7′S,8′E,11′S,12′R)-6-chloro-7′-(2-(3-hydroxy-1-azetidinyl)-2-oxoethoxy)-11′,12′-dimethyl-3,4-dihydro-2H,15′H-spiro[naphthalene-1,22′-[20]oxa[13]thia[1,14]diazatetracyclo[14.7.2.0^3,6.0^19,24]pentacosa [8,16,18,24]tetraen]-15′-one 13′,13′-dioxide]",0.151 nM,2280 nM
"COC1CN(C(=O)CO[C@H]2/C=C/C[C@H](C)[C@@H](C)S(=O)(=O)NC(=O)c3ccc4c(c3)N(C[C@@H]3CC[C@H]32)C[C@@]2(CCCc3cc(Cl)ccc32)CO4)C1 [Example 307, (1S,3′R,6′R,7′S,8′E,11′S,12′R)-6-chloro-7′-(2-(3-methoxy-1-azetidinyl)-2-oxoethoxy)-11′,12′-dimethyl-3,4-dihydro-2H,15′H-spiro[naphthalene-1,22′-[20]oxa[13]thia[1,14]diazatetracyclo[14.7.2.0^3,6.0^19,24]pentacosa [8,16,18,24]tetraen]-15′-one 13′,13′-dioxide]",0.127 nM,302 nM
"C[C@@H]1[C@@H](C)C/C=C/[C@H](OCC(=O)N2CC(N3CCCC3)C2)[C@@H]2CC[C@H]2CN2C[C@@]3(CCCc4cc(Cl)ccc43)COc3ccc(cc32)C(=O)NS1(=O)=O [Example 309, (1S,3′R,6′R,7′S,8′E,11′S,12′R)-6-chloro-11′,12′-dimethyl-7′-(2-oxo-2-(3-(1-pyrrolidinyl)-1-azetidinyl)ethoxy)-3,4-dihydro-2H,15′H-spiro[naphthalene-1,22′-[20]oxa[13]thia[1,14]diazatetracyclo[14.7.2.0^3,6.0^19,24]pentacosa [8,16,18,24]tetraen]-15′-one 13′,13′-dioxide]",0.0805 nM,414 nM
"C[C@@H]1[C@@H](C)C/C=C/[C@H](OCC(=O)N2CC[C@H](O)C2)[C@@H]2CC[C@H]2CN2C[C@@]3(CCCc4cc(Cl)ccc43)COc3ccc(cc32)C(=O)NS1(=O)=O [Example 310, (1S,3′R,6′R,7′S,8′E,11′S,12′R)-6-chloro-7′-(2-((3S)-3-hydroxy-1-pyrrolidinyl)-2-oxoethoxy)-11′,12′-dimethyl-3,4-dihydro-2H,15′H-spiro[naphthalene-1,22′-[20]oxa[13]thia[1,14]diazatetracyclo[14.7.2.0^3,6.0^19,24]pentacosa [8,16,18,24]tetraen]-15′-one 13′,13′-dioxide]",0.109 nM,792 nM
"C[C@@H]1[C@@H](C)C/C=C/[C@H](OCC(=O)N2CC[C@@H](O)C2)[C@@H]2CC[C@H]2CN2C[C@@]3(CCCc4cc(Cl)ccc43)COc3ccc(cc32)C(=O)NS1(=O)=O [Example 311, (1S,3′R,6′R,7′S,8′E,11′S,12′R)-6-chloro-7′-(2-((3R)-3-hydroxy-1-pyrrolidinyl)-2-oxoethoxy)-11′,12′-dimethyl-3,4-dihydro-2H,15′H-spiro[naphthalene-1,22′-[20]oxa[13]thia[1,14]diazatetracyclo[14.7.2.0^3,6.0^19,24]pentacosa [8,16,18,24]tetraen]-15′-one 13′,13′-dioxide]",0.138 nM,1400 nM

# The remaining compounds from weak to strong by IC50 [1], led by results:
IC50 [1],IC50 [2],Compound
1.2 nM,1140 nM,"C[C@@H]1[C@@H](C)C/C=C/[C@H](OCC(=O)N2CC(O)(C(F)(F)F)C2)[C@@H]2CC[C@H]2CN2C[C@@]3(CCCc4cc(Cl)ccc43)COc3ccc(cc32)C(=O)NS1(=O)=O [Example 306, (1S,3′R,6′R,7′S,8′E,11′S,12′R)-6-chloro-7′-(2-(3-hydroxy-3-(trifluoromethyl)-1-azetidinyl)-2-oxoethoxy)-11′,12′-dimethyl-3,4-dihydro-2H,15′H-spiro[naphthalene-1,22′-[20]oxa[13]thia[1,14]diazatetracyclo[14.7.2.0^3,6.0^19,24]pentacosa [8,16,18,24]tetraen]-15′-one 13′,13′-dioxide]"
0.654 nM,478 nM,"C[C@@H]1[C@@H](C)C/C=C/[C@H](OCC(=O)NCC(F)(F)F)[C@@H]2CC[C@H]2CN2C[C@@]3(CCCc4cc(Cl)ccc43)COc3ccc(cc32)C(=O)NS1(=O)=O [Example 297, 2-(((1S,3′R,6′R,7′S,8′E,11′S,12′R)-6-chloro-11′,12′-dimethyl-13′,13′-dioxido-15′-oxo-3,4-dihydro-2H-spiro[naphthalene-1,22′-[20]oxa[13]thia[1,14]diazatetracyclo[14.7.2.0^3,6.0^19,24]pentacosa [8,16,18,24]tetraen]-7′-yl)oxy)-N-(2,2,2-trifluoroethyl)acetamide]"
0.425 nM,860 nM,"COCCNC(=O)CO[C@H]1/C=C/C[C@H](C)[C@@H](C)S(=O)(=O)NC(=O)c2ccc3c(c2)N(C[C@@H]2CC[C@H]21)C[C@@]1(CCCc2cc(Cl)ccc21)CO3 [Example 298, 2-(((1S,3′R,6′R,7′S,8′E,11′S,12′R)-6-chloro-11′,12′-dimethyl-13′,13′-dioxido-15′-oxo-3,4-dihydro-2H-[spiro[naphthalene-1,22′-20]oxa[13]thia[1,14]diazatetracyclo[14.7.2.0^3,6.0^19,24]pentacosa [8,16,18,24]tetraen]-7′-yl)oxy)-N-(2-methoxyethyl)acetamide]"
0.382 nM,214 nM,"C[C@@H]1[C@@H](C)C/C=C/[C@H](OCC(=O)N2CC(F)(F)C2)[C@@H]2CC[C@H]2CN2C[C@@]3(CCCc4cc(Cl)ccc43)COc3ccc(cc32)C(=O)NS1(=O)=O [Example 308, (1S,3′R,6′R,7′S,8′E,11′S,12′R)-6-chloro-7′-(2-(3,3-difluoro-1-azetidinyl)-2-oxoethoxy)-11′,12′-dimethyl-3,4-dihydro-2H,15′H-spiro[naphthalene-1,22′-[20]oxa[13]thia[1,14]diazatetracyclo[14.7.2.0^3,6.0^19,24]pentacosa [8,16,18,24]tetraen]-15′-one 13′,13′-dioxide]"
0.177 nM,998 nM,"C[C@@H]1[C@@H](C)C/C=C/[C@H](OCC(=O)N2CC(C)(O)C2)[C@@H]2CC[C@H]2CN2C[C@@]3(CCCc4cc(Cl)ccc43)COc3ccc(cc32)C(=O)NS1(=O)=O [Example 305, (1S,3′R,6′R,7′S,8′E,11′S,12′R)-6-chloro-7′-(2-(3-hydroxy-3-methyl-1-azetidinyl)-2-oxoethoxy)-11′,12′-dimethyl-3,4-dihydro-2H,15′H-spiro[naphthalene-1,22′-[20]oxa[13]thia[1,14]diazatetracyclo[14.7.2.0^3,6.0^19,24]pentacosa [8,16,18,24]tetraen]-15′-one 13′,13′-dioxide]"

# From patent US12091425B2 (AMGEN INC., priority 2016, dated 2024)
